Columns and labels:
[1] = target: T1, GDP-loaded KRAS (1-169) G12C, C51S, C80L, C118S (Homo sapiens, UniProt P01116, C118S/C51S/C80L/G12C); assay: Mass Spectrometry Reactivity Assay (MSRA): covalent adduct of compound and KRAS G12C, Percent Modification; type: binding; conditions: for MSRA (% modification) 5.0 μM 0.017 hr / MSRA (% modification) 5.0 μM 0.25 hr: 5.0 μM compound; for MSRA (% modification) 10 μM 0.50 hr / MSRA (% modification) 10 μM 0.25 hr: 10 μM compound
T1 construct: GDP-loaded KRAS (1-169) G12C, C51S, C80L, C118S
Outline: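 Covalent labelling is measured by intact mass: deconvoluted modified and unmodified peak intensities yield percent modification. Compound, usually 5 μM or 10 μM final, reacts at room temperature with 5 μM GDP-bound KRAS G12C (1-169, C51S/C80L/C118S) in Hepes pH 7.5/NaCl/glycerol, sampled at 1, 15, 30, 60 min.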

KRAS G12C = KRAS G12C (Homo sapiens, UniProt P01116, G12C); assay: Cell Activity Assay: accumulation of GDP-bound KRAS G12C in MIAPaCa-2 cells (Raf-1 RBD capture, MSD readout); type: cell-based; parameters: endogenous in cells; host or cells: MIAPaCa-2; conditions: 6 hours, assay limit is 30.00
Outline: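 IC50 came from a 4-parameter fit of Ras signal normalized between DMSO and full-inhibition controls. Readout: lysate GTP-Ras bound to immobilized Raf-1 RBD, quantified with pan-Ras antibody and MSD electrochemiluminescence. Lysates derived from MIAPaCa-2 cells treated 6 h with serially diluted compound, 0.3% DMSO.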

## C=CC(=O)N1CCN(c2nc(O[C@@H]3CN(C)C[C@H]3C3CC3)nc3c(Oc4c(Cl)c(F)cc5[nH]ncc45)nccc23)CC1 (racemic) [Example 39I, rac-1-[4-(8-[(5-chloro-6-fluoro-1H-indazol-4-yl)oxy]-2-{[(3S,4R)-4-cyclo-propyl-1-methyl-pyrrolidin-3-yl]oxy}pyrido [3,4-d]pyrimidin-4-yl)piperazin-1-yl]prop-2-en-1-one]
[1]
  MSRA (% modification) 5.0 μM 0.017 hr: 31%
KRAS G12C
  IC50: 0.083 µM

## C=CC(=O)N1CCN(c2nc(OC[C@]3(F)CCCN(C)C3)nc3c(Oc4c(Cl)c(F)cc5[nH]ncc45)nccc23)CC1 [Example 02I, 1-[4-(8-[(5-chloro-6-fluoro-1H-indazol-4-yl)oxy]-2-{[(3S)-3-fluoro-1-methylpiperidin-3-yl]methoxy}pyrido[3,4-d]pyrimidin-4-yl)piperazin-1-yl]prop-2-en-1-one]
[1]
  MSRA (% modification) 5.0 μM 0.25 hr: 81%
KRAS G12C
  IC50: 0.049 µM

## C=CC(=O)N1CCN(c2nc(Oc3cccnc3C)nc3c(Oc4c(Cl)c(F)cc5[nH]ncc45)nccc23)CC1 [Example 14I, 1-(4-{8-[(5-chloro-6-fluoro-1H-indazol-4-yl)oxy]-2-[(2-methyl-pyridin-3-yl)oxy]pyrido [3,4-d]pyrimidin-4-yl}piperazin-1-yl)prop-2-en-1-one]
[1]
  MSRA (% modification) 5.0 μM 0.25 hr: 14%
KRAS G12C
  IC50: 0.366 µM

## C=CC(=O)N1CCN(c2nc(OC[C@H]3COCCN3C)nc3c(Oc4c(Cl)c(F)cc5[nH]ncc45)nccc23)CC1 [Example 10H, 1-[4-(8-[(5-chloro-6-fluoro-1H-indazol-4-yl)oxy]-2-{[(3R)-4-methylmorpholin-3-yl]methoxy}pyrido[3,4-d]pyrimidin-4-yl)piperazin-1-yl]prop-2-en-1-one]
[1]
  MSRA (% modification) 5.0 μM 0.25 hr: 47%
  MSRA (% modification) 10 μM 0.50 hr: 68%
KRAS G12C
  IC50: 0.965 µM

## C=CC(=O)N1CCN(c2nc(Oc3cccc4c3CCN(CC)C4)nc3c(Oc4c(C)ccc5[nH]ncc45)nccc23)CC1 [Example 31I, 1-(4-{2-[(2-ethyl-1,2,3,4-tetrahydro-isoquinolin-5-yl)oxy]-8-[(5-methyl-1H-indazol-4-yl)oxy]pyrido [3,4-d]pyrimidin-4-yl}piperazin-1-yl)prop-2-en-1-one]
[1]
  MSRA (% modification) 5.0 μM 0.017 hr: 31%
KRAS G12C
  IC50: 0.041 µM

## C=CC(=O)N1CCN(c2ncnc3c(Oc4c(Cl)c(F)cc5[nH]ncc45)nccc23)C[C@H]1C [Example 25A, 1-[(2R)-4-{8-[(5-chloro-6-fluoro-1H-indazol-4-yl)oxy]pyrido[3,4-d]pyrimidin-4-yl}-2-methylpiperazin-1-yl]prop-2-en-1-one]
[1]
  MSRA (% modification) 10 μM 0.50 hr: 17%
KRAS G12C
  IC50: 8.89 µM

## C=CC(=O)N1CCN(c2nc(Oc3ccc(F)c4c3CN(C)CC4)nc3c(Oc4c(Cl)c(F)cc5[nH]ncc45)nccc23)CC1 [Example 54I, 1-(4-{8-[(5-chloro-6-fluoro-1H-indazol-4-yl)oxy]-2-[(5-fluoro-2-methyl-1,2,3,4-tetrahydro-isoquinolin-8-yl)oxy]pyrido [3,4-d]pyrimidin-4-yl}piperazin-1-yl)prop-2-en-1-one]
[1]
  MSRA (% modification) 5.0 μM 0.017 hr: 78%
KRAS G12C
  IC50: 0.019 µM

## C=CC(=O)N1CCN(c2nc(O[C@@H]3CCN(C)C[C@H]3C)nc3c(Oc4c(Cl)c(F)cc5[nH]ncc45)nc(Cl)cc23)CC1 (racemic) [Example 34G, rac-1-[4-(6-chloro-8-[(5-chloro-6-fluoro-1H-indazol-4-yl)oxy]-2-{[(3R,4R)-1,3-dimethylpiperidin-4-yl]oxy}pyrido[3,4-d]pyrimidin-4-yl)piperazin-1-yl]prop-2-en-1-one]
[1]
  MSRA (% modification) 5.0 μM 0.017 hr: 47%
KRAS G12C
  IC50: 0.063 µM

## C=CC(=O)N1CCN(c2nc(NC(C)c3nncn3C)nc3c(Oc4c(C)ccc5[nH]ncc45)cccc23)CC1 (stereo not shown) [Example 03F, 1-[4-(8-[(5-methyl-1H-indazol-4-yl)oxy]-2-{[1-(4-methyl-4H-1,2,4-triazol-3-yl)ethyl]amino}quinazolin-4-yl)piperazin-1-yl]prop-2-en-1-one]
[1]
  MSRA (% modification) 10 μM 0.50 hr: 12%
KRAS G12C
  IC50: > 30 µM

## C=CC(=O)N1CCN(c2ncnc3c(Oc4c(C)c(Cl)cc5[nH]ncc45)cccc23)CC1CC#N (stereo not shown) [Example 22C, (1-acryloyl-4-{8-[(5-chloro-6-mehtyl-1H-indazol-4-yl)oxy]quinazolin-4-yl}piperazin-2-yl)acetonitrile]
[1]
  MSRA (% modification) 10 μM 0.25 hr: 75%
  MSRA (% modification) 10 μM 0.50 hr: 75%
KRAS G12C
  IC50: 14 µM

## C=CC(=O)N1CCN(c2nc(Oc3cccc4c3CCN(C)C4)nc3c(Oc4c(Cl)c(F)cc5[nH]ncc45)nccc23)CC1 [Example 22I, 1-(4-{8-[(5-chloro-6-fluoro-1H-indazol-4-yl)oxy]-2-[(2-methyl-1,2,3,4-tetrahydro-isoquinolin-5-yl)oxy]pyrido [3,4-d]pyrimidin-4-yl}piperazin-1-yl)prop-2-en-1-one]
[1]
  MSRA (% modification) 5.0 μM 0.017 hr: 80%
KRAS G12C
  IC50: 0.003 µM

## C=CC(=O)N1CCN(c2nc(O[C@@H]3CN(C)C[C@H]3C)nc3c(Oc4c(Cl)c(F)cc5[nH]ncc45)nc(Cl)cc23)CC1 (racemic) [Example 32G, rac-1-[4-(6-chloro-8-[(5-chloro-6-fluoro-1H-indazol-4-yl)oxy]-2-{[(3S,4R)-1,4-dimethylpyrrolidin-3-yl]oxy}pyrido[3,4-d]pyrimidin-4-yl)piperazin-1-yl]prop-2-en-1-one]
[1]
  MSRA (% modification) 5.0 μM 0.017 hr: 44%
KRAS G12C
  IC50: 0.016 µM

## C=CC(=O)N1CCN(c2nc(OCCN(C)C)nc3c(Oc4c(Cl)c(C)cc5[nH]ncc45)cccc23)CC1 [Example 15E, 1-(4-{8-[(5-chloro-6-methyl-1H-indazol-4-yl)oxy]-2-[2-(dimethylamino)ethoxy]quinazolin-4-yl}piperazin-1-yl)prop-2-en-1-one]
[1]
  MSRA (% modification) 5.0 μM 0.25 hr: 56%
  MSRA (% modification) 10 μM 0.25 hr: 59%
  MSRA (% modification) 10 μM 0.50 hr: 74%
KRAS G12C
  IC50: 0.51 µM

## C=CC(=O)N1CCN(c2ncnc3c(Oc4c(C)c(Cl)cc5[nH]ncc45)nc(C#N)cc23)C[C@@H]1C [Example 33A, 4-[(3S)-4-acryloyl-3-methylpiperazin-1-yl]-8-[(6-chloro-5-methyl-1H-indazol-4-yl)oxy]pyrido[3,4-d]pyrimidine-6-carbonitrile]
[1]
  MSRA (% modification) 10 μM 0.50 hr: 34%
KRAS G12C
  IC50: > 30 µM

## C=CC(=O)N1CCN(c2nc(OC[C@@H]3CCCN3C)nc3c(Oc4c(Cl)c(C)cc5[nH]ncc45)nc(Cl)cc23)CC1 [Example 06G, 1-[4-(6-chloro-8-[(5-chloro-6-methyl-1H-indazol-4-yl)oxy]-2-{[(2S)-1-methylpyrrolidin-2-yl]methoxy}pyrido[3,4-d]pyrimidin-4-yl)piperazin-1-yl]prop-2-en-1-one]
[1]
  MSRA (% modification) 5.0 μM 0.017 hr: 23%
  MSRA (% modification) 5.0 μM 0.25 hr: 52%
  MSRA (% modification) 10 μM 0.25 hr: 82%
KRAS G12C
  IC50: 0.064 µM

## C=CC(=O)N1CCN(c2ncnc3c(Oc4c(Cl)c(F)cc5[nH]ncc45)nc(Cl)cc23)[C@H](C)C1 [Example 40A, 1-[(3R)-4-{6-chloro-8-[(5-chloro-6-fluoro-1H-indazol-4-yl)oxy]pyrido[3,4-d]pyrimidin-4-yl}-3-methylpiperazin-1-yl]prop-2-en-1-one]
[1]
  MSRA (% modification) 10 μM 0.25 hr: 6%
KRAS G12C
  IC50: 20.9 µM

## C=CC(=O)N1CCN(c2ncnc3c(Cc4c(C)ccc5[nH]ncc45)nccc23)CC1 [Example 02D, 1-(4-{8-[(5-methyl-1H-indazol-4-yl)methyl]pyrido[3,4-d]pyrimidin-4-yl}piperazin-1-yl)prop-2-en-1-one]
[1]
  MSRA (% modification) 10 μM 0.50 hr: 12%
KRAS G12C
  IC50: 4.66 µM

## C=CC(=O)N1CCN(c2nc(N3CC[C@H](N(C)C)C3)nc3c(Oc4c(C)ccc5[nH]ncc45)cccc23)CC1 [Example 08E]
[1]
  MSRA (% modification) 10 μM 0.50 hr: 25%
KRAS G12C
  IC50: 10.7 µM

## C=CC(=O)N1CCN(c2nc(NCCc3nncn3C)nc3c(Oc4c(C)ccc5[nH]ncc45)cccc23)CC1 [Example 16F, 1-[4-(8-[(5-methyl-1H-indazol-4-yl)oxy]-2-{[2-(4-methyl-4H-1,2,4-triazol-3-yl)ethyl]amino}quinazolin-4-yl)piperazin-1-yl]prop-2-en-1-one]
[1]
  MSRA (% modification) 10 μM 0.50 hr: 16%
KRAS G12C
  IC50: > 30 µM

## C=CC(=O)N1CCN(c2nc(OC[C@]3(F)CCN(C)C3)nc3c(Oc4c(Cl)c(F)cc5[nH]ncc45)nccc23)CC1 [Example 14H, 1-[4-(8-[(5-chloro-6-fluoro-1H-indazol-4-yl)oxy]-2-{[(3S)-3-fluoro-1-methylpyrrolidin-3-yl]methoxy}pyrido[3,4-d]pyrimidin-4-yl)piperazin-1-yl]prop-2-en-1-one]
[1]
  MSRA (% modification) 5.0 μM 0.25 hr: 52%
  MSRA (% modification) 10 μM 0.25 hr: 81%
KRAS G12C
  IC50: 0.082 µM

## C=CC(=O)N1CCN(c2ncnc3c(Oc4c(Cl)ccc5[nH]ncc45)cccc23)[C@@H](C)C1 [Example 09C, 1-[(3S)-4-{8-[(5-chloro-1H-indazol-4-yl)oxy]quinazolin-4-yl}-3-methylpiperazin-1-yl]prop-2-en-1-one]
[1]
  MSRA (% modification) 10 μM 0.50 hr: 34%
KRAS G12C
  IC50: 2.87 µM

Source: patent US10662204B2 (PFIZER INC., priority 2018, dated 2020)
